Measured values as given in US9926321B2, “Hsp90 inhibitors” (Sloan-Kettering Institute for Cancer Research, priority 2011, dated 2018).

How the values were obtained:
Hsp90 = Hsp90 binding assay (fluorescence polarization, cy3B-GM displacement), human cancer cell lysate; conditions: fluorescence polarization, cy3B-GM displacement; the table does not say which lysate (SKBr3 or JNPL3)
Experimental: (§1) For the binding studies, fluorescence polarization (FP) assays w-re performed similarly as was previously reported [Du et al. (2007) “High-throughput screening fluorescence polarization assay for tumor-specific Hsp90” J. Biomol. Screen 12:915-924]. Briefly, FP measurements were performed on an Analyst GT instrument (Molecular Devices, Sunnyvale, Calif.). Measurements were taken in black 96-well microtiter plates (Corning #3650) where both the excitation and the emission occurred from the top of the well. A stock of 10 μM cy3B-GM was prepared in DMSO and diluted with HFB buffer (20 mM Hepes (K), pH 7.3, 50 mM KCl, 2 mM DTT, 5 mM MgCl2, 20 mM Na2MoO4, and 0.01% NP40 with 0.1 mg/mL BGG). The test compounds were dissolved in DMSO and added at several concentrations to the HFB assay buffer containing both 6 nM cy3B-GM and transgenic mouse brain lysate (6 μg JNPL3 lysate) or human cancer cell lysate (3 μg SKBr3 lysate) in a final volume of 100 μL. Drugs were added to triplicate wells. Free cy3B-GM (6 nM cy3B-GM), bound cy3B-GM (6 nM cy3B-GM+lysate, as indicated above) and buffer only containing wells (background) were included as controls in each plate. Plates were incubated on a shake at 4° C., and polarization values measured at 24 h. Percentage inhibition was calculated as follows: (% Control)=100−((mPc−mPf)/(mPb−mPf))×100, where mPc is the recorded mP from compound wells, mPf is the average recorded mP from cy3B-GM-only wells, and mPb is the average recorded mP from wells containing both cy3B-GM and lysate, and plotted against values of competitor concentrations. The inhibitor concentration at which 50% of bound cy3B-GM was displaced was obtained by fitting the data using a nonlinear regression analysis as implemented in Prism 4.0 (GraphPad Software).

Hsp90 (SKBr3 lysate) = assay: as above; conditions: lysate not given
Experimental: as §1

hERG = molecular target: T1, hERG (Homo sapiens, UniProt Q12809); assay: hERG fluorescence polarization assay (Predictor hERG kit); type: binding; conditions: concentration displacing 50% of Predictor hERG tracer red; read-out: hERG assay result
T1 construct: purchased Invitrogen PV5365
Experimental: hERG Fluorescence Polarization Assay:
Following the manufacturer's protocol, the hERG assay was performed using Predictor hERG Fluorescence Polarization Assay kit (catalog no. PV5365) from Invitrogen. Briefly, FP measurements were performed on an Analyst GT instrument (Molecular Devices, Sunnyvale, Calif.). Measurements were taken in black 384-well plates (Corning #3677), where both the excitation and the emission occurred from the top of the well. The test compounds were dissolved in DMSO and added at several concentrations to the Predictor hERG FP assay buffer containing 4 nM Predictor hERG tracer red and 10 μL of Predictor hERG membrane in a final volume of 20 μL. Drugs were added to triplicate wells. E-4031 as positive control was included in each plate. Plates were then kept on a shaker at room temperature and polarization values were measured after 4 hrs. The inhibition concentration at which 50% of tracer red gets displaced was obtained by fitting the data using a nonlinear regression analysis as implemented in Prism 5.0 (GraphPad Software).

T1 sequence (Q12809 whole entry): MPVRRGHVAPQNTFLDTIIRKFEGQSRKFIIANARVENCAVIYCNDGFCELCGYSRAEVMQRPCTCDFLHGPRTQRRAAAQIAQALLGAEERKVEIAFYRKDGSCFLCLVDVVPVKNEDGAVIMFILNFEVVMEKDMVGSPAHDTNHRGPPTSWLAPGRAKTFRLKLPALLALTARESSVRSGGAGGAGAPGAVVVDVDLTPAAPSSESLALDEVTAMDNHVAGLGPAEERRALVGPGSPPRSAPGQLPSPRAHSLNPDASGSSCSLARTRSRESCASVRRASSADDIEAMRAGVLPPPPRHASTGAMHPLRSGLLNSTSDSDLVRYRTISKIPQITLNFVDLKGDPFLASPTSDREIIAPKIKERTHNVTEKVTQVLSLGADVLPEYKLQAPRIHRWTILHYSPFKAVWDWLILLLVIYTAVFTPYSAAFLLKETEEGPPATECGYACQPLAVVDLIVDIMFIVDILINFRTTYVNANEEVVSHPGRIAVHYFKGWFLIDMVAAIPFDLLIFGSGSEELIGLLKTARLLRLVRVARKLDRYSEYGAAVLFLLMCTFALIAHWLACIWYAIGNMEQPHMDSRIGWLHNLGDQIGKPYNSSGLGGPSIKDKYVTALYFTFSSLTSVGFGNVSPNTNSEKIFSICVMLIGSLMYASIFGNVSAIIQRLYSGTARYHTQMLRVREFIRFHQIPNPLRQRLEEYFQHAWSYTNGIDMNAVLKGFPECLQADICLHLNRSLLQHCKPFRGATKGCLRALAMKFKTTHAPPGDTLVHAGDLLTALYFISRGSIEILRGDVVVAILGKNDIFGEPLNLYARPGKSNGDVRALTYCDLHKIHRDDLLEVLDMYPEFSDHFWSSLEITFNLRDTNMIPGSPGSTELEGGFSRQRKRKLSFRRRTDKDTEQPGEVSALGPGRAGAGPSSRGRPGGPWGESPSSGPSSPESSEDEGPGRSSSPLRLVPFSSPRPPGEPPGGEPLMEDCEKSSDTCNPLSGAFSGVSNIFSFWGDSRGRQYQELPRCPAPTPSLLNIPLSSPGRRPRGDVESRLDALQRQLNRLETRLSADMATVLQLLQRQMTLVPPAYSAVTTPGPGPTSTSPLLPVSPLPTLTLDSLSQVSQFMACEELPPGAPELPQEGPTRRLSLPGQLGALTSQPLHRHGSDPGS

Row | IC50 (Hsp90) [nM] | Structure (SMILES) | Hsp90 binding affinity (in words, referring to Table 12) (Hsp90 (SKBr3 lysate)) | IC50 (hERG) [nM]
1 | 29.6 | CC(C)(C)[S+]([O-])NCCn1c(Cc2cc3c(cc2I)OCO3)nc2c(N)nc(F)nc21 (stereo not shown) [Compound 4A-12, N-(2-(6-amino-2-fluoro-8-((6-iodobenzo[d][1,3]dioxol-5-yl)methyl)-9H-purin-9-yl)ethyl)-2-methylpropane-2-sulfinamide] | – | –
2 | 78 | CC(C)(C)NS(=O)(=O)CCn1c(Sc2cc3c(cc2I)OCO3)nc2c(N)ncnc21 [Compound 1A-5, 2-[6-Amino-8-(6-iodo-benzo[1,3]dioxol-5-ylsulfanyl)-purin-9-yl]-ethanesulfonic acid tert-butylamide] | high level of binding affinity | –
3 | 44 | CC(C)(C)NS(=O)(=O)CCCn1c(Sc2cc3c(cc2I)OCO3)nc2c(N)ncnc21 [Compound 1A-19, 3-[6-Amino-8-(6-iodo-benzo[1,3]dioxol-5-ylsulfanyl)-purin-9-yl]-propane-1-sulfonic acid tert-butylamide] | high level of binding affinity | –
4 | 68 | CC(C)C(=O)NCCCn1c(Sc2cc3c(cc2I)OCO3)nc2c(N)ncnc21 [Compound 1A-44, N-(3-(6-Amino-8-((6-iodobenzo[d][1,3]dioxol-5-yl)thio)-9H-purin-9-yl)propyl)isobutyramide] | – | –
5 | 6.3 | CS(=O)(=O)NCCn1c(Sc2cc3c(cc2I)OCO3)nc2c(N)ncnc21 [Compound 1A-10, N-{2-[6-Amino-8-(6-iodo-benzo[1,3]dioxol-5-ylsulfanyl)-purin-9-yl]-ethyl}-methanesulfonamide] | high level of binding affinity | –
6 | 22 | CN(C)c1cc2c(cc1Sc1nc3c(N)ncnc3n1CCCNS(=O)(=O)C1CC1)OCO2 [Compound 1G-28, N-(3-(6-amino-8-((6-(dimethylamino)benzo[d] [1,3]dioxol-5-yl)thio)-9H-purin-9-yl)propyl)cyclopropane-sulfonamide] | high level of binding affinity | –
7 | 19.7 | Nc1ncnc2c1nc(Sc1cc3c(cc1I)OCO3)n2CCCNS(=O)(=O)C1CC1 [Compound 1A-28, Cyclopropanesulfonic acid {3-[6-amino-8-(6-iodo-benzo[1,3]dioxol-5-ylsulfanyl)-purin-9-yl]-propyl}-amide] | – | –
8 | 24 | CC(C)(C)S(=O)(=O)NCCCn1c(Sc2cc3c(cc2I)OCO3)nc2c(N)ncnc21 [Compound 1A-25, 2-Methyl-propane-2-sulfonic acid {3-[6-amino-8-(6-iodo-benzo[1,3]dioxol-5-ylsulfanyl)-purin-9-yl]-propyl}-amide] | – | –
9 | 3.5 | CS(=O)(=O)NCCn1c(Sc2cc3c(cc2I)CCC3)nc2c(N)ncnc21 [Compound 3A-10, N-{2-[6-Amino-8-(6-iodo-indan-5-ylsulfanyl)-purin-9-yl]-ethyl}-methanesulfonamide] | high level of binding affinity | –
10 | 20.1 | CC(C)(C)[S+]([O-])NCCCn1c(Sc2cc3c(cc2I)CCC3)nc2c(N)ncnc21 (stereo not shown) [Compound 3A-26, 2-Methyl-propane-2-sulfinic acid {3-[6-amino-8-(6-iodo-indan-5-ylsulfanyl)-purin-9-yl]-propyl}-amide] | high level of binding affinity | –
11 | 68 | CC(C)(C)S(=O)(=O)NCCn1c(Sc2cc3c(cc2I)CCC3)nc2c(N)ncnc21 [Compound 3A-11, 2-Methyl-propane-2-sulfonic acid {2-[6-amino-8-(6-iodo-indan-5-ylsulfanyl)-purin-9-yl]-ethyl}-amide] | high level of binding affinity | –
12 | 68 | CC(C)(C)[S+]([O-])NCCn1c(Sc2cc3c(cc2I)CCO3)nc2c(N)ncnc21 (stereo not shown) [Compound 2A-12, 2-Methyl-propane-2-sulfinic acid {2-[6-amino-8-(5-iodo-2,3-dihydro-benzofuran-6-ylsulfanyl)-purin-9-yl]-ethyl}-amide] | high level of binding affinity | –
13 | 11.5 | CS(=O)(=O)NCCCn1c(Sc2cc3c(cc2I)OCO3)nc2c(N)ncnc21 [Compound 1A-24, N-{3-[6-Amino-8-(6-iodo-benzo[1,3]dioxol-5-ylsulfanyl)-purin-9-yl]-propyl}-methanesulfonamide] | high level of binding affinity | –
14 | 8.1 | CS(=O)(=O)NCCCn1c(Sc2cc3c(cc2I)CCC3)nc2c(N)ncnc21 [Compound 3A-24, N-{3-[6-Amino-8-(6-iodo-indan-5-ylsulfanyl)-purin-9-yl]-propyl}-methanesulfonamide] | high level of binding affinity | –
15 | 51 | CC(C)(C)S(=O)(=O)NCCn1c(Sc2cc3c(cc2I)CCO3)nc2c(N)ncnc21 [Compound 2A-11, 2-Methyl-propane-2-sulfonic acid {2-[6-amino-8-(5-iodo-2,3-dihydro-benzofuran-6-ylsulfanyl)-purin-9-yl]-ethyl}-amide] | high level of binding affinity | –
16 | – | CC(C)(C)[S+]([O-])NCCn1c(Sc2cc3c(cc2I)CCC3)nc2c(N)ncnc21 (stereo not shown) [Compound 3A-12, 2-Methyl-propane-2-sulfinic acid {2-[6-amino-8-(6-iodo-indan-5-ylsulfanyl)-purin-9-yl]-ethyl}-amide] | high level of binding affinity | –
17 | – | CC(C)NCCCn1c(Sc2cc3c(cc2I)OCO3)nc2c(N)ncnc21 [PU-H71, reference compound] | – | 1000
18 | 16.5 | CC(=O)OC(C)(C)C(=O)NCCCn1c(Sc2cc3c(cc2I)OCO3)nc2c(N)ncnc21 [Compound 1A-47, 1-((3-(6-Amino-8-((6-iodobenzo[d][1,3]dioxol-5-yl)thio)-9H-purin-9-yl)propyl)amino)-2-methyl-1-oxopropan-2-yl acetate] | – | –
19 | 76.5 | NC(=O)CCCCCn1c(Sc2cc3c(cc2I)OCO3)nc2c(N)ncnc21 [Compound 1A-50, 6-(6-amino-8-((6-iodobenzo[d][1,3]dioxol-5-yl)thio)-9H-purin-9-yl)hexanamide] | – | –
20 | 11.8 | Nc1ncnc2c1nc(Sc1cc3c(cc1I)CCO3)n2CCCNC(=O)C1CC1 [Compound 2A-45, Cyclopropanecarboxylic acid {3-[6-amino-8-(5-iodo-2,3-dihydro-benzufuran-6-ylsulfanyl)-purin-9-yl]-propyl}-amide] | high level of binding affinity | –
21 | 64 | CC(C)CS(=O)(=O)NCCCn1c(Sc2cc3c(cc2I)OCO3)nc2c(N)ncnc21 [Compound 1A-27, 2-Methyl-propane-1-sulfonic acid {3-[6-amino-8-(6-iodo-benzo[1,3]dioxol-5-ylsulfanyl)-purin-9-yl]-propyl}-amide] | – | –
22 | 28.3 | COc1ccc(I)c(Sc2nc3c(N)ncnc3n2CCCNC(=O)C(C)(C)C)c1 [Compound 1A-49, N-(3-(6-amino-8-((2-iodo-5-methoxyphenyl)thio)-9H-purin-9-yl)propyl)pivalamide] | – | –
23 | 71.5 | CC(C)(C)S(=O)(=O)NCCn1c(Sc2cc3c(cc2I)OCO3)nc2c(N)ncnc21 [Compound 1A-11, 2-Methyl-propane-2-sulfonic acid {2-[6-amino-8-(6-iodo-benzo[1,3]dioxol-5-ylsulfanyl)-purin-9-yl]-ethyl}-amide] | high level of binding affinity | –
24 | 17 | CC(C)(C)[S+]([O-])NCCCn1c(Sc2cc3c(cc2I)CCO3)nc2c(N)ncnc21 (stereo not shown) [Compound 2A-26, 2-Methyl-propane-2-sulfinic acid {3-[6-amino-8-(5-iodo-2,3-dihydro-benzofuran-6-ylsulfanyl)-purin-9-yl]-propyl}-amide] | high level of binding affinity | –
25 | 37.4 | C#Cc1cc2c(cc1Sc1nc3c(N)ncnc3n1CCCNS(C)(=O)=O)CCC2 [Compound 3A-43, N-{3-[6-Amino-8-(6-ethynyl-indan-5-ylsulfanyl)-purin-9-yl]-propyl}-methanesulfonamide] | high level of binding affinity | –
